The structures appear in SMILES notation.

The target in this experiment is T1, human FXR (Homo sapiens, UniProt Q96RI1).
T1 construct: expressed in transfected cells; host or cells: HEK293 cells stably carrying a 5xGal4-response-element firefly luciferase reporter, transiently transfected with pcDNA3.1-Gal4-FXR
T1 sequence (Q96RI1 262-486 limits assumed): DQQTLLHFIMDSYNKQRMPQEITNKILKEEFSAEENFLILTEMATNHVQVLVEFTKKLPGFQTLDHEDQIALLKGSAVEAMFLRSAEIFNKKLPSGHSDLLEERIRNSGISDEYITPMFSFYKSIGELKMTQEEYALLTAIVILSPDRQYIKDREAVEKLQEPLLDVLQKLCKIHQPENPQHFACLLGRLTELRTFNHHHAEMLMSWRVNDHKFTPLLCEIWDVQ
Put plainly: transient human FXR/Gal4-luciferase reporter assay. The format is cell-based. The conditions noted are these: Gal4-hFXR transfected HEK293 reporter cells; relative to 8 μM GW-4064. In short, it runs like this:
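HEK293 cells stably carrying a 5×Gal4-response-element firefly luciferase reporter, transiently transfected overnight with a CMV-driven Gal4 DNA-binding domain/human FXR ligand-binding domain fusion.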
Background: Reporter assays use an easily measured gene product as a stand-in for the process of interest.
`CCNC(=O)c1cc(F)c2nc(N3CCC4(C=C(c5c(-c6c(Cl)cncc6Cl)noc5C5CC5)C4)CC3)sc2c1` [Example 200, 2-(2-(5-Cyclopropyl-3-(3,5-dichloropyridin-4-yl)isoxazol-4-yl)-7-azaspiro[3.5]non-1-en-7-yl)-N-ethyl-4-fluorobenzo[d]thiazole-6-carboxamide] registered an EC50 of 68 nM. `O=C(NC1CC1)c1cc(F)c2nc(N3CCC4(C=C(c5c(-c6c(Cl)cncc6Cl)noc5C5CC5)C4)CC3)sc2c1` [Example 201, N-Cyclopropyl-2-(2-(5-cyclopropyl-3-(3,5-dichloropyridin-4-yl)isoxazol-4-yl)-7-azaspiro[3.5]non-1-en-7-yl)-4-fluorobenzo[d]thiazole-6-carboxamide] gave an EC50 of 150 nM. The same measure for `NC(=O)c1cc(F)c2nc(N3CCC4(C=C(c5c(-c6c(Cl)cncc6Cl)noc5C5CC5)C4)CC3)sc2c1` [Example 202, 2-(2-(5-Cyclopropyl-3-(3,5-dichloropyridin-4-yl)isoxazol-4-yl)-7-azaspiro[3.5]non-1-en-7-yl)-4-fluorobenzo[d]thiazole-6-carboxamide]: 155 nM; for `CCOC(=O)c1cc(C(F)(F)F)c2cc(N3CCC4(C=C(c5c(-c6c(Cl)cncc6Cl)noc5C5CC5)C4)CC3)ccc2n1` [Example 203, Ethyl 6-(2-(5-cyclopropyl-3-(3,5-dichloropyridin-4-yl)isoxazol-4-yl)-7-azaspiro[3.5]non-1-en-7-yl)-4-(trifluoromethyl)quinoline-2-carboxylate]: 946 nM. On to `O=C(O)c1cc(F)c2nc(N3CCC4(C=C(c5c(C6CC6)nnn5-c5c(Cl)cccc5Cl)C4)CC3)sc2c1` [Example 204, 2-(2-(4-Cyclopropyl-1-(2,6-dichlorophenyl)-1H-1,2,3-triazol-5-yl)-7-azaspiro[3.5]non-1-en-7-yl)-4-fluorobenzo[d]thiazole-6-carboxylic acid], for which the EC50 was found to be 26 nM. On to `O=C(O)c1cc(F)c2nc(OC3CCC4(CC3)CC(O)(c3c(-c5c(Cl)cccc5Cl)noc3C3CC3)C4)sc2c1` (stereo not drawn) [Example 205, 2-((2-(5-Cyclopropyl-3-(2,6-dichlorophenyl)isoxazol-4-yl)-2-hydroxyspiro[3,5]nonan-7-yl)oxy)-4-fluorobenzo[d]thiazole-6-carboxylic acid], for which a half-maximal response (EC50) required 2620 nM.

As for `O=C(O)c1cccc(COC2CCC3(CC2)CC(O)(c2c(-c4c(Cl)cccc4Cl)noc2C2CC2)C3)c1` (stereo not drawn) [Example 206, 3-(((2-(5-Cyclopropyl-3-(2,6-dichlorophenyl)isoxazol-4-yl)-2-hydroxyspiro[3.5]nonan-7-yl)oxy)methyl)benzoic acid], a half-maximal response (EC50) required 4710 nM. In the case of `O=C(O)c1cccc(OC2CCC3(CC2)CC(O)(c2c(-c4c(Cl)cccc4Cl)noc2C2CC2)C3)c1` (stereo not drawn) [Example 207, 3-((2-(5-Cyclopropyl-3-(2,6-dichlorophenyl)isoxazol-4-yl)-2-hydroxyspiro[3.5]nonan-7-yl)oxy)benzoic acid] it was 4470 nM; in that of `O=C(O)c1ccc(OC2CCC3(CC2)CC(O)(c2c(-c4c(Cl)cccc4Cl)noc2C2CC2)C3)cc1` (stereo not drawn) [Example 208, 4-((2-(5-Cyclopropyl-3-(2,6-dichlorophenyl)isoxazol-4-yl)-2-hydroxyspiro[3.5]nonan-7-yl)oxy)benzoic acid], 6660 nM. The same measure for `O=C(O)c1cc(F)c2nc(OC3CCC4(C=C(c5c(-c6c(Cl)cccc6Cl)noc5C5CC5)C4)CC3)sc2c1` (stereo not drawn) [Example 209, 2-((2-(5-Cyclopropyl-3-(2,6-dichlorophenyl)isoxazol-4-yl)spiro[3.5]non-1-en-7-yl)oxy)-4-fluorobenzo[d]thiazole-6-carboxylic acid]: 1280 nM; for `O=C(O)c1ccc2cc(OC3CCC4(C=C(c5c(-c6c(Cl)cccc6Cl)noc5C5CC5)C4)CC3)ccc2n1` (stereo not drawn) [Example 210, 6-((2-(5-Cyclopropyl-3-(2,6-dichlorophenyl)isoxazol-4-yl)spiro[3.5]non-1-en-7-yl)oxy)quinoline-2-carboxylic acid]: 485 nM. The same measure for `O=C(O)c1cc(C(F)(F)F)c2cc(N3CCC4(C=C(c5c(C(C6CC6)C6CC6)noc5C5CC5)C4)CC3)ccc2n1` [Example 212, 6-(2-(5-Cyclopropyl-3-(dicyclopropylmethyl)isoxazol-4-yl)-7-azaspiro[3.5]non-1-en-7-yl)-4-(trifluoromethyl)quinoline-2-carboxylic acid]: 1550 nM. In turn, `O=C(O)c1cc(F)c2nc(N3CCC4(C=C(c5c(C(F)F)cnn5-c5ccccc5C(F)(F)F)C4)CC3)sc2c1` [Example 213, 2-(2-(4-(Difluoromethyl)-1-(2-(trifluoromethyl)phenyl)-1H-pyrazol-5-yl)-7-azaspiro[3.5]non-1-en-7-yl)-4-fluorobenzo[d]thiazole-6-carboxylic acid] returned an EC50 of 48 nM. The same measure for `O=C(O)c1cc(C(F)(F)F)c2cc(N3CCC4(C=C(c5c(C(F)F)cnn5-c5ccccc5C(F)(F)F)C4)CC3)ccc2n1` [Example 214, 6-(2-(4-(Difluoromethyl)-1-(2-(trifluoromethyl)phenyl)-1H-pyrazol-5-yl)-7-azaspiro[3.5]non-1-en-7-yl)-4-(trifluoromethyl)quinoline-2-carboxylic acid]: 26 nM; for `O=C(O)c1cc(F)c2nc(N3CCC4(CC3)CC(c3c(C(F)F)cnn3-c3ccccc3C(F)(F)F)C4)sc2c1` [Example 215, 2-(2-(4-(Difluoromethyl)-1-(2-(trifluoromethyl)phenyl)-1H-pyrazol-5-yl)-7-azaspiro[3.5]nonan-7-yl)-4-fluorobenzo[d]thiazole-6-carboxylic acid]: 995 nM; for `O=C(O)c1cc(F)c2nc(N3CCC4(C=C(c5c(C(F)F)cnn5-c5c(Cl)cncc5Cl)C4)CC3)sc2c1` [Example 216, 2-(2-(1-(3,5-Dichloropyridin-4-yl)-4-(difluoromethyl)-1H-pyrazol-5-yl)-7-azaspiro[3.5]non-1-en-7-yl)-4-fluorobenzo[d]thiazole-6-carboxylic acid]: 88 nM. `O=C(O)c1cc(F)c2nc(N3CCC4(C=C(c5c(C(F)F)cnn5-c5ccccc5OC(F)(F)F)C4)CC3)sc2c1` [Example 217, 2-(2-(4-(Difluoromethyl)-1-(2-(trifluoromethoxy)phenyl)-1H-pyrazol-5-yl)-7-azaspiro[3.5]non-1-en-7-yl)-4-fluorobenzo[d]thiazole-6-carboxylic acid]: a half-maximal response (EC50) required 230 nM. In the case of `O=C(O)c1ccc(N2CCC3(C=C(c4c(C(F)F)cnn4-c4ccccc4OC(F)(F)F)C3)CC2)nc1` [Example 218, 6-(2-(4-(Difluoromethyl)-1-(2-(trifluoromethoxy)phenyl)-1H-pyrazol-5-yl)-7-azaspiro[3.5]non-1-en-7-yl)nicotinic acid] it was 1080 nM; in that of `Cn1cc(C(=O)O)c2ccc(N3CCC4(C=C(c5c(C(F)F)cnn5-c5ccccc5C(F)(F)F)C4)CC3)cc21` [Example 219, 6-(2-(4-(Difluoromethyl)-1-(2-(trifluoromethyl)phenyl)-1H-pyrazol-5-yl)-7-azaspiro[3.5]non-1-en-7-yl)-1-methyl-1H-indole-3-carboxylic acid], 180 nM. The same measure for `Cc1cc(C(=O)O)cc2sc(N3CCC4(CC3)CC(c3c(C(F)F)cnn3-c3ccccc3C(F)(F)F)C4)nc12` [Example 220, 2-(2-(4-(Difluoromethyl)-1-(2-(trifluoromethyl)phenyl)-1H-pyrazol-5-yl)-7-azaspiro[3.5]nonan-7-yl)-4-methylbenzo[d]thiazole-6-carboxylic acid]: 378 nM; for `Cc1cc(C(=O)O)cc2sc(N3CCC4(C=C(c5c(C(F)F)cnn5-c5ccccc5OC(F)(F)F)C4)CC3)nc12` [Example 221, 2-(2-(4-(Difluoromethyl)-1-(2-(trifluoromethoxy)phenyl)-1H-pyrazol-5-yl)-7-azaspiro[3.5]non-1-en-7-yl)-4-methylbenzo[d]thiazole-6-carboxylic acid]: 182 nM; for `Cn1cc(C(=O)O)c2ccc(N3CCC4(CC3)CC(c3c(C(F)F)cnn3-c3ccccc3C(F)(F)F)C4)cc21` [Example 222, 6-(2-(4-(Difluoromethyl)-1-(2-(trifluoromethyl)phenyl)-1H-pyrazol-5-yl)-7-azaspiro[3. 5]nonan-7-yl)-1-methyl-1H-indole-3-carboxylic acid]: 275 nM.

Take `O=C(O)c1ccc(N2CCC3(C=C(c4c(C(F)F)cnn4-c4ccccc4C(F)(F)F)C3)CC2)nc1` [Example 223]: the EC50 is 205 nM. For `O=C(O[C@@H]1O[C@H](C(=O)O)[C@@H](O)[C@H](O)[C@H]1O)c1cc(C(F)(F)F)c2cc(N3CCC4(C=C(c5c(-c6c(Cl)cncc6Cl)noc5C5CC5)C4)CC3)ccc2n1` [Example 224, (2S,3S,4S,5R,6S)-6-((6-(2-(5-Cyclopropyl-3-(3,5-dichloropyridin-4-yl)isoxazol-4-yl)-7-azaspiro[3.5]non-1-en-7-yl)-4-(trifluoromethyl)quinoline-2-carbonyl)oxy)-3,4,5-trihydroxytetrahydro-2H-pyran-2-carboxylic acid], the EC50 was 73 nM.

The EC50 is the concentration that produces a half-maximal response. The low end stands for a more potent agent, the high end for a less potent agent.

The record behind these values is patent US11078198B2 (BRISTOL-MYERS SQUIBB COMPANY, priority 2017, dated 2021).
